Assay results reported in patent publication US10555930B2, “Complex of a glucopyranosyl derivative and preparation method and use thereof” (SUNSHINE LAKE PHARMA CO., LTD., priority 2015, dated 2020).

Key:
[1] = Measurement of hygroscopicity (Chinese Pharmacopoeia 2010, part II, appendix XIXJ); assay type: physicochemical; settings: 25° C.±1° C., constant humidity (ammonium chloride or ammonium sulfate saturated solution), 24 h
Procedure: Test method: According to the method regulated by Chinese pharmacopoeia 2010, part II, appendix XIXJ, a dry glass weighing bottle with a stopper (outside diameter is 50 mm, high is 15 mm) was placed in a thermostatic drier (an ammonium chloride or ammonium sulfate saturated solution was placed in the bottom) at 25° C.±1° C. before one day of experiment, the empty glass weighing bottle with a stopper was weighed accurately by using METTLERTOLEDO XP205DR analytical balance, and recorded as m1. An appropriate amount of the Complex (IA) sample (prepared from example 2) was tiled on the above weighing bottle at a thickness of 1 mm, which was weighed accurately and recorded as m2. Opening the bottle, the bottle was placed under the above constant temperature and humidity condition for 24 h […]. Closing the bottle with the stopper, the bottle was weighed accurately, and recorded as m3, the weight gain percentage (%) was calculated.
The judgement of the results hygroscopicity was shown as table C.

[2] = Measurement of stability (high-temperature, high-humidity and photostability tests; HPLC impurity content); assay type: physicochemical; settings: for total impurity / purity: 210 nm
Procedure: An appropriate amount of the Complex (IA) sample (prepared from example 2) was weighed and tiled on a clean culture dish at a thickness of ≤5 mm, and analyzed under the following conditions:
The test sample was placed under a high temperature condition (60±2° C.) for 10 d, the relative indexes were measured at the fifth and tenth days. […] If no significant change, the test at 40° C. was not necessary.
The test sample was placed under a 25° C. and RH 90%±5% condition for 10 d, and the sample were measured at the fifth and tenth days. Test items should include a moisture-absorption weight gain. If weighting percentage of moisture absorption was more than 5%, the test should be carried out under a 25° C. and RH 75%±5% condition using the same method; If weighting percentage of moisture absorption was less than 5%, and other inspection items met the requirements, the test was not necessary. The constant humidity condition can be realized by adopting constant temperature humidity chamber or placing a saturated saline solution under a closed container. […]
The test sample was placed in light box or other suitable light vessel under a 4500 Lx±500 Lx of illuminance condition for 10 d, and the sample were measured at the fifth and tenth days.
The impurity content of the sample was calculated by the normalization method of peak area using an HPLC chromatographic instrument under the above condition, the analytic conditions were shown below:
The detection was performed on Agilent 1200DAD high pressure liquid chromatography spectrometer (Zorbax Eclipse Plus C18 150×4.6 mm chromatographic column).
The test condition of HPLC: the run time was 30 minutes (min); the column temperature was 35° C.; the detection was carried out at the wavelength of 210 nm and 225 nm;
Mobile phase: phase C: acetonitrile phase D: ultrapure water flow rate: 1.0 mL/min.
Gradient elution, the ratio of mobile phase was shown as table B.

human SGLT-1 = target: T1, human SGLT-1 (Homo sapiens, UniProt P13866); assay: Inhibitory activity against SGLT-1, [14C]-AMG uptake in CHO cells; assay type: cell-based; settings: CHO cells expressing human SGLT-1, [14C]-AMG
T1 construct: expressed in transfected cells; host or cells: CHO cells (Flp-in CHO)
T1 sequence (P13866 1-664): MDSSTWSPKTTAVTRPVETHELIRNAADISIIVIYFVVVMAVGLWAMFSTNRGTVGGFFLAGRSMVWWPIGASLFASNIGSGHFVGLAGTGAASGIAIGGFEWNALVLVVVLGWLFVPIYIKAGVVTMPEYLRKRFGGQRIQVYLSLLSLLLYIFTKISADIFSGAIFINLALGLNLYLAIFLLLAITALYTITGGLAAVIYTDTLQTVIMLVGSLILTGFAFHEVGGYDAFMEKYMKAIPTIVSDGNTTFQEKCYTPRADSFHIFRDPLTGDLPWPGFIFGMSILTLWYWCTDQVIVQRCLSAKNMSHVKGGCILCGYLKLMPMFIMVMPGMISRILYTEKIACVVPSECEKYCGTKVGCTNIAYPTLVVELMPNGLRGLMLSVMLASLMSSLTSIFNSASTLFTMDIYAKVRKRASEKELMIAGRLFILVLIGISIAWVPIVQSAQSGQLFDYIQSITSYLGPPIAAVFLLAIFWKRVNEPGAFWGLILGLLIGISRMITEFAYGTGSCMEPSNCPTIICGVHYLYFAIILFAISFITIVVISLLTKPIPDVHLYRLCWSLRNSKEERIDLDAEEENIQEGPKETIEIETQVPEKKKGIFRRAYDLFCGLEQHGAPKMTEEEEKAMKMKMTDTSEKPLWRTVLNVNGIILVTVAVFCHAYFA
Procedure: The following method was used for detecting inhibitory activity of the compounds of the invention against SGLT-1 and SGLT-2.
3×10^4 of FIP-in CHO cells transfected Mock and CHO cells expressing human SGLT-1/SGLT-2 gene were seeded into a 96-well cell culture plate; the cells were incubated for 12 hours, and then to each well was added 150 μL of Na-free buffer to wash the cells once; and then to each well were added 50 μL of Na buffer containing the compound at different concentrations and 0.5 μM [^14C]-AMG, and the plate was incubated in a incubator at 37° C. for 1 hour, the reaction was terminated by adding 150 μL of pre-cooled Na-free buffer; the cells were further washed with Na-free buffer 3 times and the residual liquid was removed; to each well was added 20 μL of pre-cooled NaOH ([…]), the plate was vibrated at 900 rpm for 5 min; and then to each well was added 80 μL of scintillation solution, the plate was vibrated at 600 rpm for 5 min; the plate was analyzed on liquid scintillation counter.

[3] = high humidity (25° C., RH 90%±5%), 5 d, HPLC
[4] = high humidity (25° C., RH 90%±5%), 10 d, HPLC
[5] = high-temperature (60±2° C.), 5 d, HPLC
[6] = high-temperature (60±2° C.), 10 d, HPLC
[7] = illumination (4500 Lx±500 Lx), 5 d, HPLC
[8] = illumination (4500 Lx±500 Lx), 10 d, HPLC

weight gain percentage [1]: 0.27%
total impurity ([2]; 0 d, HPLC peak area normalization): 0.15%
purity ([2]; 0 d, HPLC): 99.85%
purity [2, 3]: 99.85%
total impurity [2, 3]: 0.15%
purity [2, 4]: 99.81%
total impurity [2, 4]: 0.19%
purity [2, 5]: 99.83%
total impurity [2, 5]: 0.17%
purity [2, 6]: 99.81%
total impurity [2, 6]: 0.19%
stability (summary in words) ([2]; high-temperature, high humidity or illumination for 10 d): good stability
purity [2, 7]: 99.83%
total impurity [2, 7]: 0.17%
purity [2, 8]: 99.78%
total impurity [2, 8]: 0.22%
SMILES: CCOc1ccc(Cc2cc([C@]34OC[C@]([C@@H](C)O)(O3)[C@@H](O)[C@H](O)[C@H]4O)ccc2Cl)cc1 [Complex (IA), Complex (IA) of (1R,2S,3S,4R,5S)-5-(4-chloro-3-(4-ethoxybenzyl)phenyl)-1-((1R)-1-hydroxyethyl)-6,8-dioxabicyclo[3.2.1]octane-2,3,4-triol (I-n) and L-pyroglutamic acid]
SGLT-1 inhibitory activity (human SGLT-1): has SGLT-2 and SGLT-1 inhibitory activity
